The subject of series [1] is Human epithelium cancer cells A431. As to the kind of experiment: Evaluation of cell toxicity of fluorescent labeling agent (cell counting kit-8, absorbance at 450 nm). It is filed as cell-based. The procedure:
<Evaluation of Cell Toxicity of Fluorescent Labeling Agent>
Human epithelium cancer cells A431 were seeded in a 96-well plate (1×10^4 cells/well). Next, the A431 were cultured for 24 hours using an RPMI 1640 medium to which 10% fetal bovine serum (FBS) and 1% penicillin-streptomycin had been added in an incubator (37° C., 5% CO2-containing Air, humidified environment). As the RPMI 1640 medium, an RPMI-164-Medium manufactured by Sigma-Aldrich Inc. was used.
After cultivation, the medium was removed, the fluorescent labeling agents prepared in Examples 83 to 123 and Comparative Examples 25 to 37 and an RPMI 1640 medium containing 1% dimethyl sulfoxide (DMSO medium solution) were added thereto. These were left to stand in the incubator for one hour and then washed in the RPMI 1640 medium. 10 μL of a cell counting kit-8 (manufactured by Dojindo Laboratories.) was added to each well and left to stand in the incubator (37° C., 5% CO2-containing Air, humidified environment) for one hour. Next, the absorbance at 450 nm was measured using a plate reader (SPARK, manufactured by Tecan Trading AG).
The relative value of the absorbance of each fluorescent labeling agent when the absorbance of the well to which the DMSO medium solution had been added was regarded as one was calculated and evaluated based on the following standards. […] At the time of calculating the relative value of the absorbance of the fluorescent labeling agent, a value obtained by subtracting the absorbance before the addition of the cell counting kit-8 (manufactured by Dojindo Laboratories.) from the measured absorbance was used.
• P (Pass): 0.8 or more • F (Failure): Less than 0.8 <Evaluation of Fluorescence Intensity of Fluorescent Labeling Agent>
On the technique in general: Tetrazolium dyes change colour on reduction, which living cells bring about.

Series [2] shares this test system. As to the kind of experiment: Evaluation of visibility of cell (fluorescent microscope). Set-up: key: P (Pass): Clear; F (Failure): Unclear. It is filed as cell-based. The procedure:
<Evaluation of Visibility of Cell>
Human epithelium cancer cells A431 were seeded in a 96-well plate (1×10^4 cells/well). The A431 were cultured for 24 hours using an RPMI 1640 medium to which 10% fetal bovine serum (FBS) and 1% penicillin-streptomycin had been added in an incubator (37° C., 5% CO2-containing Air, humidified environment).
After cultivation, the medium was removed, and the fluorescent labeling agents prepared in Examples 127 to 189 and Comparative Examples 25 to 37 were added thereto and left to stand in the incubator for one hour. Next, these were washed in the RPMI 1640 medium. The dark field images and fluorescent images of the cells were observed using a fluorescent microscope (manufactured by Keyence Corporation, BZ-X800) equipped with an excitation filter for an appropriate wavelength and a fluorescent filter and evaluated based on the following standards.
• P (Pass): Clear • F (Failure): Unclear
The evaluation results of the visibility of the cells labeled with the fluorescent labeling agents 1, 15, 19, 24, 25, 68, and 75 are sequentially shown in FIGS. 2 to 8 (magnification: 10 times, optical uptake time: 1 second).
The evaluation results of the visibility of the cells labeled with the fluorescent labeling agents 42 and 53 are sequentially shown in FIGS. 9 to 10 (magnification: 40 times, optical uptake time: 1 second).
From what has been described above, it has been clarified that the fluorescent labeling agent according to the embodiment of the present invention has excellent characteristics as a fluorescent labeling agent.

The next series relates to phospholipids. Nature of the series: Evaluation of property of fluorescent dye being accumulated in phospholipids (labeling agent intensity / dye solution intensity). It counts as cell-based, Human. To be noted: A431 cells, one hour; relative value, comparative compound 12 regarded as one; fluorescent wavelength range as in Table 22 (780-800 nm, 630-650 nm in last line). The procedure: <Evaluation of Property of Fluorescent Dye being Accumulated in Phospholipids>
The property of each dye being accumulated in phospholipids was calculated from the fluorescence intensity integral value obtained from the fluorescent spectrum of the dye solution and the fluorescence intensity obtained from the fluorescence intensity of the fluorescent labeling agent using an expression (1). The relative value of the property of each fluorescent labeling agent being accumulated in phospholipids when the property of the comparative compound 12 being accumulated in phospholipids was regarded as one was calculated and evaluated based on the following standards. In a case where the relative value is evaluated as 3 or more, it can be said that each fluorescent dye has a favorable property of being accumulated in phospholipids.
• 4: The property of being accumulated in phospholipids is 4 or more. • 3: The property of being accumulated in phospholipids is 2 or more and less than 4. • 2: The property of being accumulated in phospholipids is 1 or more and less than 2. • 1: The property of being accumulated in phospholipids is less than 1. Property of being accumulated in phospholipids=fluorescence intensity of fluorescent labeling agent/fluorescence intensity of dye solution (1)

[3] abbreviates: labeling agent left one hour, absorbance relative to DMSO medium solution regarded as one.
Where [4] appears, read: A431 cells, labeling agent left one hour.
[5] abbreviates: cell counting kit-8, absorbance at 450 nm, pass/fail grade.
The mark [6] stands for this setting: A431 cells labeled for one hour, Clear/Unclear.

Regarding `C[Si](C)(CCCN)[O][Al]1[n]2c3c4cc(-c5ccccc5)ccc4c2N=C2N=C(N=c4c5cc(-c6ccccc6)ccc5c([n]41)=NC1=NC(=N3)c3ccc(-c4ccccc4)cc31)c1ccc(-c3ccccc3)cc12` [Fluorescent dye 2], in series [1] (setting [3]), the Cell toxicity entry is listed as “P (P (Pass): 0.8 or more)”. Besides, the Cell visibility result in series [2] (setting [4]) is “P”. Also, the “Property of being accumulated in phospholipids” value (shortened to “Property of being accumulated”) with phospholipids is 4 (4: The property of being accumulated in phospholipids is 4 or more.).

Consider `CCOc1cccc2c1C1=NC2=Nc2c3c(OCC)cccc3c3[n]2[Al]([O]C(=O)CCN(C)C)[n]2c(c4cccc(OCC)c4c2=NC2=NC(=N3)c3c(OCC)cccc32)=N1` [Fluorescent dye 14], for which the Cell toxicity entry in series [1] (setting [3]) was “P (P (Pass): 0.8 or more)”. For the same compound, the Cell visibility result in series [2] (setting [4]) was “P”. In the series on phospholipids, the “Property of being accumulated” value was 4 (4: The property of being accumulated in phospholipids is 4 or more.).

On to `CCOc1cccc2c1C1=NC2=Nc2c3c(OCC)cccc3c3n2[Si](O)(OP(=O)(CCC(=O)O)c2ccccc2)n2c(c4cccc(OCC)c4c2=NC2=NC(=N3)c3c(OCC)cccc32)=N1` (stereo not shown) [Fluorescent dye 16], for which the Cell toxicity result in series [1] (setting [3]) is reported as “P (P (Pass): 0.8 or more)”. The Cell visibility entry in series [2] (setting [4]) is on record as “P”. Moreover, the “Property of being accumulated” value in the series with phospholipids was 4 (4: The property of being accumulated in phospholipids is 4 or more.).

In the case of `CCOc1cccc2c1C1=NC2=Nc2c3c(OCC)cccc3c3[n]2[Al]([O]P(=O)(O)CCC(=O)O)[n]2c(c4cccc(OCC)c4c2=NC2=NC(=N3)c3c(OCC)cccc32)=N1` [Fluorescent dye 17], the Cell toxicity result in series [1] (setting [3]) is listed as “P (P (Pass): 0.8 or more)”. Besides, the Cell visibility result in series [2] (setting [4]) is “P”. For the same compound, the “Property of being accumulated” value in the series on phospholipids is reported as 4 (4: The property of being accumulated in phospholipids is 4 or more.).

Consider `CCOc1cccc2c1C1=NC2=Nc2c3c(OCC)cccc3c3[n]2[Al]([O]P(=O)(CCC(=O)O)Oc2ccccc2)[n]2c(c4cccc(OCC)c4c2=NC2=NC(=N3)c3c(OCC)cccc32)=N1` (stereo not shown) [Fluorescent dye 18], for which the Cell toxicity entry in series [1] (setting [3]) was “P (P (Pass): 0.8 or more)”. Moreover, the Cell visibility entry in series [2] (setting [4]) was “P”. In the series with phospholipids, the “Property of being accumulated” value is given as 4 (4: The property of being accumulated in phospholipids is 4 or more.).

For `CC[N+](CC)(CC)CCC[Si](C)(C)[O][Al]1[n]2c3c4cc(-c5ccccc5)ccc4c2N=C2N=C(N=c4c5cc(-c6ccccc6)ccc5c([n]41)=NC1=NC(=N3)c3ccc(-c4ccccc4)cc31)c1ccc(-c3ccccc3)cc12.[I-]` [Fluorescent dye 20], the Cell toxicity entry in series [1] (setting [3]) is “P (P (Pass): 0.8 or more)”. Further, the Cell visibility result in series [2] (setting [4]) was “P”. For the same compound, the “Property of being accumulated” value with phospholipids is listed as 4 (4: The property of being accumulated in phospholipids is 4 or more.).

For the compound `C[Si](C)(CCC[N+](c1ccccc1)(c1ccccc1)c1ccccc1)[O][Al]1[n]2c3c4cc(C5CCCCC5)c(C5CCCCC5)cc4c2N=C2N=C(N=c4c5cc(C6CCCCC6)c(C6CCCCC6)cc5c([n]41)=NC1=NC(=N3)c3cc(C4CCCCC4)c(C4CCCCC4)cc31)c1cc(C3CCCCC3)c(C3CCCCC3)cc12.[I-]` [Fluorescent dye 21], the Cell toxicity result in series [1] (setting [3]) is listed as “P (P (Pass): 0.8 or more)”. The Cell visibility entry in series [2] (setting [4]) is reported as “P”. Moreover, the “Property of being accumulated” value in the series on phospholipids was 4 (4: The property of being accumulated in phospholipids is 4 or more.).

On to `O=C(O)C(F)(F)C(F)(F)C(=O)NCCc1ccc(S(=O)(=O)[O][Al]2[n]3c4c5cc(C(F)(F)F)ccc5c3N=C3N=C(N=c5c6cc(C(F)(F)F)ccc6c([n]52)=NC2=NC(=N4)c4ccc(C(F)(F)F)cc42)c2ccc(C(F)(F)F)cc23)cc1` [Fluorescent dye 27], for which the Cell toxicity result in series [1] (setting [3]) is listed as “P (P (Pass): 0.8 or more)”. Further, in series [2] (setting [4]), the Cell visibility result is reported as “P”. For the same compound, the “Property of being accumulated” value in the series on phospholipids is on record as 4 (4: The property of being accumulated in phospholipids is 4 or more.).

With `CCOc1cccc2c1C1=Nc3c4cccc(OCC)c4c4[n]3[Mg][n]3c(c5cccc(OCC)c5c3=NC2=N1)=NC1=NC(=N4)c2ccc(OS(=O)(=O)c3ccc(CCCN)cc3)cc21` [Fluorescent dye 36], in series [1] (setting [5]), the Cell toxicity result is listed as “P (P (Pass): 0.8 or more)”. Further, the Cell visibility entry in series [2] (setting [6]) is “P”.

In the case of `CCOc1cccc2c1C1=Nc3c4cccc(OCC)c4c4[n]3[Zn][n]3c(c5cccc(OCC)c5c3=NC2=N1)=NC1=NC(=N4)c2ccc(OS(=O)(=O)c3ccc(CCCN)cc3)cc21` [Fluorescent dye 37], in series [1] (setting [5]), the Cell toxicity result is listed as “P (P (Pass): 0.8 or more)”. In addition, the Cell visibility entry in series [2] (setting [6]) is given as “P”.

`O=C(O)CCCN1C(=O)C2=C(c3ccccc3)NC(=O)C2=C1c1ccccc1` [Fluorescent dye 38]: the Cell toxicity result in series [1] (setting [5]) is “P (P (Pass): 0.8 or more)”. The Cell visibility result in series [2] (setting [6]) is “P”.

Take `CN(C)CCCNC(=O)c1ccc(C(=O)O)c(-c2c3ccc(=O)cc-3oc3cc(O)ccc23)c1` [Fluorescent dye 39]: the Cell toxicity result in series [1] (setting [5]) is recorded as “P (P (Pass): 0.8 or more)”. In addition, the Cell visibility entry in series [2] (setting [6]) is given as “P”.

Regarding `CCN(CC)c1ccc2c(-c3ccccc3C(=O)NCCCN(C)C)c3ccc(=[N+](CC)CC)cc-3oc2c1.[Cl-]` [Fluorescent dye 40], in series [1] (setting [5]), the Cell toxicity result is “P (P (Pass): 0.8 or more)”. Moreover, the Cell visibility entry in series [2] (setting [6]) is given as “P”.

For the compound `CC1=CC(C)=[N+]2C1Cc1ccc(CCC(=O)NCCCN(C)C)n1[B-]2(F)F` (stereo not shown) [Fluorescent dye 41], the Cell toxicity entry in series [1] (setting [5]) is given as “P (P (Pass): 0.8 or more)”. Further, the Cell visibility entry in series [2] (setting [6]) is reported as “P”.

As to `CCOc1cccc2c1C1=Nc3c4cccc(OCC)c4c4[n]3[Al-2]35([O][PH](=O)CCCO)[n]6c(c7cccc(OCC)c7c6=NC2=[N+]13)=NC1=[N+]5C(=N4)c2cccc(OCC)c21` (stereo not shown) [Fluorescent dye 54], the Cell toxicity result in series [1] (setting [5]) is on record as “P (P (Pass): 0.8 or more)”. Further, in series [2] (setting [6]), the Cell visibility entry was “P”.

Turning to `CCOc1cccc2c1C1=Nc3c4cccc(OCC)c4c4[n]3[Al-2]35([O]S(=O)(=O)c6ccc(O)cc6)[n]6c(c7cccc(OCC)c7c6=NC2=[N+]13)=NC1=[N+]5C(=N4)c2cccc(OCC)c21` [Fluorescent dye 55], the Cell toxicity entry in series [1] (setting [5]) is listed as “P (P (Pass): 0.8 or more)”. Also, the Cell visibility result in series [2] (setting [6]) is recorded as “P”.

Regarding `O=C1NC(c2ccccc2)=C2C(=O)N(CCCP(=O)(O)O)C(c3ccccc3)=C12` [Fluorescent dye 60], the Cell toxicity result in series [1] (setting [5]) was “P (P (Pass): 0.8 or more)”. For the same compound, the Cell visibility entry in series [2] (setting [6]) was “P”.

On to `CN1/C(=C/C=C/C=C/C2=[N+](CCCCCC(=O)NCCCO)c3ccccc3C2(C)C)C(C)(C)c2ccccc21` [Fluorescent dye 62], for which the Cell toxicity result in series [1] (setting [5]) is “P (P (Pass): 0.8 or more)”. Further, the Cell visibility entry in series [2] (setting [6]) is on record as “P”.

On to `CC1=CC(C)=[N+]2C1=Cc1ccc(CCC(=O)NCCCO)n1[B-]2(F)F` [Fluorescent dye 63], for which the Cell toxicity entry in series [1] (setting [5]) is on record as “P (P (Pass): 0.8 or more)”. Besides, the Cell visibility result in series [2] (setting [6]) is “P”.
